Literature values in PMC8198792, “Prediction of Anticancer Peptides with High Efficacy and Low Toxicity by Hybrid Model Based on 3D Structure of Peptides” (International Journal of Molecular Sciences, 2021).
Like-named read-outs stand apart in the source and are kept apart here.

Test system: cancer cell lines
Parameters: method as in 6 sources, ref CancerPPD [45] and SATPdb ||| ref CancerPPD/SATPdb ||| ref CancerPPD, SATPdb, Swissprot (PDB) ||| ref CancerPPD/SATPdb/Swissprot(PDB) ||| ref CancerPPD / SATPdb ||| ...
Settings: cited from earlier work
Source text: Supplement ijms-22-05630-s001.zip/ACPs(seguence).xlsx, sheet "D1" | column: Activity || Supplement ijms-22-05630-s001.zip/ACPs(seguence).xlsx, sheet "D2" | column: Activity || Supplement ijms-22-05630-s001.zip/ACPs(seguence).xlsx, sheet "D3" | column: Activity || (+ 2 further places)

[1] = ACPs dataset D1, 1 = ACP (positive), 0 = non-ACP (negative), label taken from databases, ref CancerPPD [45] and SATPdb
[2] = ACPs dataset D4 (sheet "D4"), label 1 = ACP (CancerPPD ID), 0 = non-ACP (non-anticancer AMP, SATPdb ID), ref CancerPPD [45] and SATPdb
[3] = ACPs dataset D3 (sheet "D3"), label 1 = ACP, 0 = non-ACP, ref CancerPPD/SATPdb
[4] = ACPs dataset D4 (sheet "D4"), label 1 = ACP, 0 = non-ACP, ref CancerPPD / SATPdb
[5] = ACPs dataset D5, sheet "D5", label 1 = ACP, 0 = non-ACP, ref CancerPPD [45] and SATPdb
[6] = ACPs dataset D3 (supplement sheet "D3"), 1 = ACP, 0 = non-ACP, ref CancerPPD [45] and SATPdb
[7] = ACPs dataset D5 (sheet "D5"), label 1 = ACP (positive set), 0 = non-ACP (negative set), ref CancerPPD [45] and SATPdb
[8] = ACPs dataset D4 (sheet "D4"), label 1 = ACP, experimentally validated ACPs, ref CancerPPD [45] and SATPdb
[9] = ACPs dataset D5 (sheet "D5"), label 1 = ACP (positive set), sequences with CancerPPD/SATPdb ID, ref CancerPPD, SATPdb
[10] = ACPs dataset sheet D2, 1 = ACP (CancerPPD/SATPdb ID), 0 = non-ACP (Swissprot/PDB ID), ref CancerPPD, SATPdb, Swissprot (PDB)
[11] = ACPs dataset D2 (supplement ACPs(seguence).xlsx, sheet D2), dataset label 1/0 (ACP / non-ACP), entries identified by Swissprot(PDB ID), ref CancerPPD/SATPdb/Swissprot(PDB)
[12] = ACPs dataset D1, label 1 = ACP, 0 = non-ACP (non-anticancer AMPs from SATPdb), ref CancerPPD/SATPdb

Substance: EYHLMNGANGYLTRVNGKTVYRVTKDPVSAVFGVISNCWGSAGAGFGPQH [satpdb10230]
- Activity [1]: 0
- Activity [2]: 0

Substance: LLKKLLKKLLKK [satpdb13272]
- Activity [3]: 0
- Activity [4]: 0
- Activity [5]: 0

Substance: GIGKFLHAAKKFAKAFVAEIMNS [compound 1354]
- Activity [6]: 1
- Activity [2]: 1
- Activity [7]: 1

Substance: YTMNPRKLFDY [satpdb15978]
- Activity [1]: 1
- Activity [8]: 1
- Activity [9]: 1
- Activity [10]: 1

Substance: SYSMEHFRWGKPV [2IQP model - B 1-13]
- Activity [7]: 0
- Activity [10]: 0

Substance: GILNTIKSIASKLKRKAK [satpdb10259]
- Activity [1]: 0
- Activity [2]: 0

Substance: EDMNQKLFDLRGKFKRPPLRRVRMSADAML [satpdb19871]
- Activity [1]: 1
- Activity [8]: 1
- Activity [9]: 1
- Activity [10]: 1

Substance: KTCENLSGTFKGPCIPDGNCNKHCRNNEHLLSGRCRDDFRCWCTNRC [6NOM NMR - A 1-47]
- Activity [11]: 0
- Activity [7]: 0

Substance: TTITGKKCQSWAAMFPHRHSKT [satpdb18336]
- Activity [1]: 1
- Activity [8]: 1
- Activity [9]: 1
- Activity [10]: 1

Substance: SILSTLKDVGISAIKNAGSGVLKTLLCKLNKNCEK [satpdb12439]
- Activity [12]: 0
- Activity [2]: 0

Substance: IFGAILPLAL GALKNLIK [2N0O NMR - A 1-18]
- Activity [7]: 0
- Activity [10]: 0

Substance: GVGDLIRKAV SVIKNIV [6GS3 X-ray 1.45 A/B 1-17]
- Activity [7]: 0
- Activity [10]: 0

Substance: FLSLIPHAIN AVSAIAKHN [2JQ0 NMR - A 1-19]
- Activity [7]: 0
- Activity [10]: 0

Substance: QPWSQCSATCGDGVRERRR [satpdb12468]
- Activity [1]: 1
- Activity [8]: 1
- Activity [9]: 1
- Activity [10]: 1

Substance: AEVAPAPAAAAPAKAPKKKAAAKPKKAGPS [satpdb11318]
- Activity [1]: 0
- Activity [2]: 0

Substance: SDQGDVAEPKMHKTAPPFDFEAIPEEYLDDES [3B23 X-ray 2.40 C 1-32]
- Activity [7]: 0
- Activity [10]: 0

Substance: FLKDHRISTFKNWPF [satpdb15356]
- Activity [1]: 1
- Activity [8]: 1
- Activity [9]: 1
- Activity [10]: 1

Substance: RLGDILQKAREKIEGGLKKLVQKIKDFFGKFAPRTES [satpdb11337]
- Activity [1]: 0
- Activity [2]: 0

Substance: FKIPPIVKDTLKKFFKGGIAGVMGQ [satpdb10550]
- Activity [1]: 0
- Activity [2]: 0

Substance: RLYRKVYGRLYRKVYGRLYRKVYGRLYRKVYGKKK [satpdb11459]
- Activity [6]: 0
- Activity [4]: 0
- Activity [5]: 0

Substance: DLWIRETLTSPKSLTG [satpdb21617]
- Activity [1]: 1
- Activity [8]: 1
- Activity [9]: 1
- Activity [10]: 1

Substance: FLSLIPSLVGGSISAFK [compound 3123]
- Activity [6]: 1
- Activity [8]: 1
- Activity [9]: 1

Substance: SWLSKTAKKLENSAKKRISEGIAIAIQGGPR [compound 1235]
- Activity [1]: 1
- Activity [8]: 1
- Activity [9]: 1
- Activity [10]: 1

Substance: GILGNIVGMGKQVVCGLSGLC [satpdb10178]
- Activity [1]: 0
- Activity [2]: 0

Substance: GFGMALKLLKKVL [compound 3586]
- Activity [6]: 1
- Activity [2]: 1
- Activity [7]: 1

Substance: TEWSACSKTCGMGISTRV [satpdb13253]
- Activity [1]: 1
- Activity [8]: 1
- Activity [9]: 1
- Activity [10]: 1

Substance: ILRWPWWPWRRK [compound 1880]
- Activity [6]: 1
- Activity [2]: 1
- Activity [7]: 1

Substance: KWKSFLKTFKSLKKTVLHTlLKAISS [compound 3757]
- Activity [6]: 1
- Activity [2]: 1
- Activity [7]: 1

Substance: GPWGPCSGSCGPGRRLRRR [satpdb14705]
- Activity [1]: 1
- Activity [8]: 1
- Activity [9]: 1
- Activity [10]: 1

Substance: GKIPVKAIKKAGAAIGKGLRAINIASTAHDVYSFFKPKHKKK [satpdb13363]
- Activity [12]: 0
- Activity [4]: 0

Substance: PEWFKCRRWQWRMKKLGA [compound 1604]
- Activity [1]: 1
- Activity [8]: 1
- Activity [9]: 1
- Activity [10]: 1

Substance: GIFSKFGGKAIKNLFIKGAKNIGKEVGMDVIRTGIDVAGCKIKGEC [satpdb10976]
- Activity [1]: 0
- Activity [2]: 0

Substance: SCASRCKGHCRARRCGYYVSVLYRGRCYCKCLRC [2EEM NMR - A 1-34]
- Activity [7]: 0
- Activity [10]: 0

Substance: KWKSFlKTFKSLKKTVLHTLLKAISS [compound 3768]
- Activity [6]: 1
- Activity [2]: 1
- Activity [7]: 1

Substance: MASRAARLAARLARLALRAL [satpdb10584]
- Activity [1]: 0
- Activity [2]: 0

Substance: GSKKPVPIIYCNRRTGKCQRM [5XO4 NMR - A 1-21]
- Activity [7]: 0
- Activity [10]: 0

Substance: GMATKAGTAFGKAAKAIIGAAL [satpdb11334]
- Activity [1]: 0
- Activity [2]: 0

Substance: INLKAIAAMAKKL [satpdb11272]
- Activity [1]: 0
- Activity [2]: 0

Substance: FKCRRWQWRMKKLGA [compound 1111]
- Activity [6]: 1
- Activity [8]: 1
- Activity [9]: 1

Substance: FLPFIARLAAKVFPSIICSVTKKC [satpdb10560]
- Activity [1]: 0
- Activity [2]: 0

Substance: rrrrrrrrGEDIIRNIARHAAQVGASMDR [compound 4239]
- Activity [6]: 1
- Activity [2]: 1
- Activity [7]: 1

Substance: KVKVKVKVpPTKVKVKVK [compound 3218]
- Activity [6]: 1
- Activity [2]: 1
- Activity [7]: 1

Substance: TEWSACNVRCGRGWQKRSR [satpdb12052]
- Activity [1]: 1
- Activity [8]: 1
- Activity [9]: 1
- Activity [10]: 1

Substance: MVQNDFVDSYDVTMLLQDDDGKQYYEYHKGLSLSDFEVLYGNTADEIIKLRLDKVL [2LE2 NMR - A/B 1-56]
- Activity [11]: 0
- Activity [5]: 0

Substance: HFLLTLVNLAKkIL [satpdb14808]
- Activity [3]: 0
- Activity [4]: 0
- Activity [5]: 0

Substance: GLLPCAESCVYIPCLTTVIGCSCKSKVCYKN [compound 4423]
- Activity [1]: 1
- Activity [8]: 1
- Activity [9]: 1
- Activity [10]: 1

Substance: FLPAIVGAAAKFLPKIFCAISKKC [compound 4356]
- Activity [1]: 1
- Activity [8]: 1
- Activity [9]: 1
- Activity [10]: 1

Substance: GIPCGESCVYIPCLTSAIGCSCKSKVCYRN [satpdb13250]
- Activity [12]: 0
- Activity [4]: 0

Substance: PRFWEYWLRAME [compound 4586]
- Activity [1]: 1
- Activity [8]: 1
- Activity [9]: 1
- Activity [10]: 1

Substance: GLFAVIKKVASVIKKL [compound 4111]
- Activity [6]: 1
- Activity [2]: 1
- Activity [7]: 1

Substance: KWKLFKKIPHLAKKF [compound 1140]
- Activity [6]: 1
- Activity [2]: 1
- Activity [7]: 1

Substance: FLPLIASVAANLAPKIICKITKTC [satpdb12152]
- Activity [12]: 0
- Activity [2]: 0

Substance: KWKEFLKEFKEAKKEVLHEALKAISE [satpdb14503]
- Activity [3]: 0
- Activity [4]: 0
- Activity [5]: 0

Substance: VSRRRRRRGGRRRR [satpdb11057]
- Activity [1]: 0
- Activity [2]: 0

Substance: ALWKTLLKKVLKAAAK [satpdb14616]
- Activity [3]: 0
- Activity [4]: 0
- Activity [5]: 0

Substance: KWKKLLKKPLKLLKKLL [satpdb14017]
- Activity [3]: 0
- Activity [4]: 0
- Activity [5]: 0

Substance: rrrrrrrrGEDIIRNIARHLAQVGDSMDR [compound 4227]
- Activity [6]: 1
- Activity [2]: 1
- Activity [7]: 1

Substance: GSSFLSPEHQLAQQRKESKKPPAKLQPR [satpdb13082]
- Activity [12]: 0
- Activity [4]: 0

Substance: KRRHWFPLSFQEFLEQLRRFRDQLPFP [satpdb12966]
- Activity [12]: 0
- Activity [4]: 0

Substance: KTCENLADTFRGPCFATSNC [compound 4449]
- Activity [1]: 1
- Activity [8]: 1
- Activity [9]: 1
- Activity [10]: 1

Substance: GLMDTIKGVAKTVAASWLDKLKCKITGC [compound 4362]
- Activity [1]: 1
- Activity [8]: 1
- Activity [9]: 1
- Activity [10]: 1

Substance: IKLSPETKDNLKKVLKGAIKGAIAVAKMV [satpdb12617]
- Activity [3]: 0
- Activity [4]: 0
- Activity [5]: 0
